Results on 20 compounds are retold here after patent publication US7893069B2, “Substituted imidazo[2,1-b]thiazole compounds and uses thereof” (Gruenenthal GmbH, priority 2006, dated 2011).

As a reminder, the IC50 is the concentration needed to halve the response being measured. In general, inhibition refers to the share of the control response that was lost under treatment. Read a low inhibition as little suppression. As a reminder, the ED50 is the dose at which the effect has come halfway, by size or by number of responders. Read a low ED50 as an effect at a small dose.

Where a name gives a salt, the structure may show the parent alone.

T1 sequence (I3LUI7 19-1212): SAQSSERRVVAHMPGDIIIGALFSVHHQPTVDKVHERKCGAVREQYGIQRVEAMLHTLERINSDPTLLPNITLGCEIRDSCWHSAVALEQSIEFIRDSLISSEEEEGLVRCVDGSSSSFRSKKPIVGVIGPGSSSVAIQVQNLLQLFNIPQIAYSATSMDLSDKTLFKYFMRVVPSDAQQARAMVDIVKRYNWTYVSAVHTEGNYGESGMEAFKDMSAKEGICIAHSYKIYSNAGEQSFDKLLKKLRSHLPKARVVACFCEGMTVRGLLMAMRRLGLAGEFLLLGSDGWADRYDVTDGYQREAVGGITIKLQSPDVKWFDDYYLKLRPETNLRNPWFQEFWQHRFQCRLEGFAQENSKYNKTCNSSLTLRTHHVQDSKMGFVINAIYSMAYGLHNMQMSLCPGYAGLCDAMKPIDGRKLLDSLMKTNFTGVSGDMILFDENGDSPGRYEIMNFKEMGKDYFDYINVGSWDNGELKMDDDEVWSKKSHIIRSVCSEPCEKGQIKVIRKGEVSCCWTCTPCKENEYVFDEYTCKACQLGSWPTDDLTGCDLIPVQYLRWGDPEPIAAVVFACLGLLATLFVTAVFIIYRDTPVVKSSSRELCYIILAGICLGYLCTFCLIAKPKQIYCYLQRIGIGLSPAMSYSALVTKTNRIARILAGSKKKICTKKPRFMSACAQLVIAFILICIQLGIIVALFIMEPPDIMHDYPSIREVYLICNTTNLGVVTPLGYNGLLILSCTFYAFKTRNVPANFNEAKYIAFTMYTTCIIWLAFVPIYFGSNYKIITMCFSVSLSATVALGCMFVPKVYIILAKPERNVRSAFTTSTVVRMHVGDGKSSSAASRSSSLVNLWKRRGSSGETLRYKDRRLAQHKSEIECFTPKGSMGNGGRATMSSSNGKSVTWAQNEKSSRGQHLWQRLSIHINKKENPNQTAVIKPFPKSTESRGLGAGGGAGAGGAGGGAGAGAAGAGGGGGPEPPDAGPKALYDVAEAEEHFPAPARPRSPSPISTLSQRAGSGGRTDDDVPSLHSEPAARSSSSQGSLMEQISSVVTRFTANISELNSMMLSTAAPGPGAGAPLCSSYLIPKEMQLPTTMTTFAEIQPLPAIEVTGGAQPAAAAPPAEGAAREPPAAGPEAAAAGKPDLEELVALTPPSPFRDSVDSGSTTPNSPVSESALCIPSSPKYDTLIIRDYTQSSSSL

One experiment addresses T1, mGluR5 receptor (pig) (Sus scrofa, UniProt I3LUI7).
T1 construct: 450 μg protein from brain homogenate is incubated with 5 nM; from tissue; host or cells: pig brain halves without medulla, cerebellum and pons; homogenate, differential centrifugation
The experiment is described as follows: [3H]-MPEP binding assay, pig brain homogenate. Particulars: displacement of 5 nM [3H]-MPEP, 450 μg protein from pig brain homogenate, 60 min, room temperature; read-out: IC50 [3H]-MPEP bond mGluR5 receptor (pig). As to the method:
Substituted imidazo[2,1-b]thiazole compounds corresponding to the foregoing formula I are likewise particularly preferred, which, after 60 minutes of incubation in 450 μg protein from pig brain homogenate at a temperature between 20° C. and 25° C. in a concentration of less than 2500 nM, preferably less than 1000 nM, particularly preferably less than 700 nM, very particularly preferably less than 100 nM, even more preferably less than 70 nM, bring about a 50-percent displacement of [^3H]-2-methyl-6-(3-methoxyphenyl)-ethynylpyridine which is present in a concentration of 5 nM. The determination of the displacement of [^3H]-2-methyl-6-(3-methoxyphenyl)-ethynyl-pyridine is performed as described hereinafter in the section Pharmacological Methods, I. Method for determining the inhibition of [^3H]-MPEP-bonding in the mGluR5 receptor bonding assay.
1. Method for Determining the Affinity to the mGluR5 Receptor
Pig brain homogenate is produced by homogenization (Polytron PT 3000, Kinematica AG, 10,000 rpm for 90 seconds) of pig brain halves without medulla, cerebellum and pons in buffer pH 8.0 (30 mM Hepes, Sigma, order no. H3375+1 tablet complete to 100 ml, Roche Diagnostics, order no. 1836145) in ratio 1:20 (brain weight/volume) and differential centrifugation at 900×g and 40,000×g. In each case, 450 μg protein from brain homogenate is incubated with 5 nM ^3-[H]-MPEP (Tocris, order no. R1212) (MPEP=2-methyl-6-(3-methoxyphenyl)-ethynylpyridine) in 250 μl incubation batches in 96 well microtitration plates and the compounds to be tested (10 μM in the test) in buffer (as above) at room temperature for 60 min.
Thereafter, the batches are filtered with the help of a Brandel Cell Harvester (Brandel, TYP Robotic 9600) on unifilter plates with glass fibre filter mats (Perkin Elmer, order no. 6005177) and subsequently washed with buffer (as above) 3 times with in each case 250 μl per sample. The filter plates are subsequently dried for 60 min at 55° C. 30 μL Ultima Gold™ scintillator is subsequently added per well (Packard BioScience, order no. 6013159) and the samples are measured after 3 hours on the β-counter (Mikrobeta, Perkin Elmer). The unspecific bond is determined by addition of 10 μM MPEP (Tocris, order no. 1212).
Take `CC(C)(C)CC(C)(C)Nc1c(-c2ccc(C#Cc3ccccc3)s2)nc2sccn12` [Example 1, 6-(5-(phenylethynyl)thiophene-2-yl)-N-(2,4,4-trimethylpentane-2-yl)imidazo[2,1-b]thiazole-5-amine]: the IC50 was found to be 2180 nM.

Consider `CC(C)(C)Nc1c(-c2ccc(C#Cc3ccccn3)s2)nc2sccn12` [Example 2, N-tert-butyl-6-(5-(pyridine-2-ylethynyl)thiophene-2-yl)imidazo[2,1-b]thiazole-5-amine], for which the half-maximal inhibitory concentration (IC50) came to 6.3 nM.

As for `Cc1csc2nc(-c3ccc(C#Cc4ccccn4)s3)c(NC(C)(C)C)n12` [Example 3, N-tert-butyl-3-methyl-6-(5-(pyridine-2-ylethynyl)thiophene-2-yl)imidazo[2,1-b]thiazole-5-amine hydrochloride], the half-maximal inhibitory concentration (IC50) stood at 12 nM.

In the case of `Cc1sc2nc(-c3ccc(C#Cc4ccccn4)s3)c(NC(C)(C)C)n2c1C` [Example 5, N-tert-butyl-2,3-dimethyl-6-(5-(pyridine-2-ylethinyl)thiophene-2-yl)-imidazo[2,1-b]thiazole-5-amine hydrochloride], the IC50 worked out at 17 nM.

Consider `CC(C)(C)Nc1c(-c2ccc(C#Cc3ccccn3)s2)nc2sc(Cl)cn12` [Example 6, N-tert-butyl-2-chloro-6-(5-(pyridine-2-ylethinyl)thiophene-2-yl)-imidazo[2,1-b]thiazole-5-amine hydrochloride], for which the half-inhibitory concentration (IC50) turned out to be 9.9 nM.

For the compound `COC(=O)c1cn2c(NC(C)(C)C)c(-c3ccc(C#Cc4ccccn4)s3)nc2s1` [Example 8, 5-(tert-butylamino)-6-(5-(pyridine-2-ylethinyl)thiophene-2-yl)-imidazo[2,1-b]thiazole-2-carbonic acid methylester hydrochloride], the IC50 was 160 nM.

Turning to `CC(C)(C)CC(C)(C)Nc1c(-c2ccc(C#Cc3ccccn3)s2)nc2sccn12` [Example 10], the IC50 is 100 nM.

`Cc1cn2c(NC(C)(C)C)c(-c3ccc(C#Cc4ccccn4)cc3)nc2s1` [Example 11, N-tert-butyl-2-methyl-6-(4-(pyridine-2-ylethynyl)phenyl)imidazo[2,1-b]thiazole-5-amine]: the IC50 stood at 20 nM.

As to `CC(C)(C)Nc1c(-c2ccc(C#Cc3ccccn3)o2)nc2sccn12` [Example 12, N-tert-butyl-6-(5-(pyridine-2-ylethynyl)furan-2-yl)imidazo[2,1-b]thiazole-5-amine], the IC50 amounted to 87 nM.

In the case of `Nc1c(-c2ccc(C#Cc3ccccn3)s2)nc2sccn12` [Example 14, 6-(5-(pyridine-2-ylethynyl)thiophene-2-yl)imidazo[2,1-b]thiazole-5-amine], the IC50 amounted to 140 nM.

`CC(C)(C)Nc1c(-c2ccc(C#Cc3ncccn3)s2)nc2sccn12` [Example 15, N-tert-butyl-6-(5-(pyrimidine-2-ylethynyl)thiophene-2-yl)imidazo[2,1-b]thiazole-5-amine]: the IC50 turned out to be 10 nM.

Turning to `CC(C)(C)Nc1c(-c2ccc(C#Cc3ncccc3F)s2)nc2sccn12` [Example 16, N-tert-butyl-6-(5-((3-fluoropyridine-2-yl)ethynyl)thiophene-2-yl)imidazo[2,1-b]thiazole-5-amine], the half-maximal inhibitory concentration (IC50) was 13 nM.

In the case of `CC(C)(C)Nc1c(-c2ccc(C#Cc3ccnc(F)c3)s2)nc2sccn12` [Example 17, N-tert-butyl-6-(5-((2-fluoropyridine-4-yl)ethynyl)thiophene-2-yl)imidazo[2,1-b]thiazole-5-amine], the IC50 worked out at 18 nM.

As to `CC(C)(C)Nc1c(-c2ccc(C#Cc3cccs3)s2)nc2sccn12` [Example 18, N-tert-butyl-6-(5-(thiophene-2-ylethynyl)thiophene-2-yl)imidazo[2,1-b]thiazole-5-amine], the IC50 came out at 45 nM.

With `CC(C)(C)Nc1c(-c2ccc(C#Cc3nccs3)s2)nc2sccn12` [Example 19, N-tert-butyl-6-(5-(thiazole-2-ylethynyl)thiophene-2-yl)imidazo[2,1-b]thiazole-5-amine], the IC50 was 24 nM.

As to `CC(C)(C)Nc1c(-c2ccc(C#Cc3cccc(O)c3)s2)nc2sccn12` [Example 20, 3-((5-(5-(tert-butylamino)imidazo[2,1-b]thiazole-6-yl)thiophene-2-yl)ethynyl)phenol], the concentration for half-maximal inhibition (IC50) is 170 nM.

With `CC(C)(C)Nc1c(-c2ccc(C#Cc3cccc(C#N)c3)s2)nc2sccn12` [Example 21, 3-((5-(5-(tert-butylamino)imidazo[2,1-b]thiazole-6-yl)thiophene-2-yl)ethynyl)benzonitrile], the half-maximal inhibitory concentration (IC50) was 26 nM.

Turning to `Cc1cccnc1C#Cc1ccc(-c2nc3sccn3c2NC(C)(C)C)s1` [Example 23, N-tert-butyl-6-(5-((3-methylpyridine-2-yl)ethynyl)thiophene-2-yl)imidazo[2,1-b]thiazole-5-amine], the IC50 is 230 nM.

Still in this experiment, the particulars now being: test compound 10 μM; inhibition of [3H]-MPEP binding, pig brain homogenate.
On to `Cc1csc2nc(-c3ccc(C#Cc4ccccc4)s3)c(NC(C)(C)C)n12` [Example 13, N-tert-butyl-3-methyl-6-(5-(phenylethynyl)thiophene-2-yl)imidazo[2,1-b]thiazole-5-amine], for which the inhibition at 10 µM came to 48%.

On to `CCNc1c(-c2ccc(C#Cc3ccccc3)nc2)nc2sccn12` [Example 22, N-ethyl-6-(6-(phenylethynyl)pyridine-3-yl)imidazo[2,1-b]thiazole-5-amine], for which the inhibition at 10 µM is 82%.

In a further experiment the test system is rat. Kind of experiment: Formalin test in rats (phase 2, chronic pain component). It counts as in vivo. Particulars: iv, administered 30 min before formalin, observed 21 to 27 min after formalin injection. As to the method:
2a. Formalin Test in Rats The formalin test (Dubuisson, D. and Dennis, S. G., 1977, Pain, 4, 161-174) represents a model for acute and chronic pain. A biphasic nociceptive reaction, which is recorded by observation of three clearly differentiable behavioural patterns, is induced by a single formalin injection into the dorsal side of a rear paw in freely mobile test animals. The reaction has two phases: Phase 1=Immediate reaction (duration up to 10 min; paw shaking, licking), Phase 2=Late reaction (after a rest phase; likewise, paw shaking, licking; duration up to 60 min). The 1st phase reflects a direct stimulation of the peripheral nocisensors with high spinal nociceptive input or glutamate release (acute pain phase); the 2nd phase reflects a spinal and peripheral hypersensitisation (chronic pain phase). In the investigations presented here, the chronic pain component (phase 2) was evaluated. Formalin with a volume of 50 μl and a concentration of 5% is administered subcutaneously into the dorsal side of the right rear paw of each animal. The substances to be tested are administered 30 min before the formalin injection orally (p.o), intravenously (i.v.) or intraperitoneally (i.p.). The specific changes in behavior such as lifting and shaking the paw, shifts in weight of the animal as well as biting and licking reactions are observed and registered in the period of observation from 21 to 27 min after formalin injection. The various forms of behavior are summarized in the so-called pain rate (PR), which, relative to the sub-intervals of 3 min, represents the calculation of an average nociception reaction. […] The group size is 10 animals (n=10). 2b. Formalin Test in Mice
`CC(C)(C)Nc1c(-c2ccc(C#Cc3ccccn3)s2)nc2sccn12` [Example 2, N-tert-butyl-6-(5-(pyridine-2-ylethynyl)thiophene-2-yl)imidazo[2,1-b]thiazole-5-amine]: the 50% effective dose (ED50) is 0.47 mg/kg.

The experiment is the same for the next values; noted with them: p.o., 10 mg/kg, administered 30 min before formalin.
For `CC(C)(C)Nc1c(-c2ccc(C#Cc3ccccn3)s2)nc2sccn12` [Example 2, N-tert-butyl-6-(5-(pyridine-2-ylethynyl)thiophene-2-yl)imidazo[2,1-b]thiazole-5-amine], the “Formalin test (rat) p.o. Reduction in the nociceptive behavior over controls at 10 mg/kg” value is 66%.
